The test system of assay [1] is myeloid cells. Briefly: Differentiation of LPS-treated mouse myeloid cells treated with glycyrrhizin (in vitro), flow cytometric analysis. Format: cell-based, C57BL/6 mice. The following applies: LPS 1 ng/ml, GR 100 μg/ml, incubation 3 days. The protocol:
To verify the in vivo experimental results of Example <2-1>, flow cytometric analysis was used to confirm whether differentiation into CD11b+Gr1 myeloid cells or MDSCs from myeloid cells was induced when myeloid cells of mice were treated with glycyrrhizin (GR).
Specifically, myeloid cells were obtained by washing the femoral region of each of 8-week-old male C57BL/6 male mice without specific pathogens with a Roswell Park Memorial Institute (RPMI) 1640 medium in a sterile state using a syringe with a 27-gauge needle. Red blood cells (RBCs) of the collected bone marrow were lysed with an erythrolysis solution, and then the remaining cells were treated with 10% fetal bovine serum, 40 ng/ml of IL-6, and 40 ng/ml of granulocyte-macrophage colony stimulating factor at 37° C. Thereafter, only 1 ng/ml of LPS was treated (LPS group) or 100 μg/ml of GR was additionally treated (LPS+GR group) after LPS treatment. The control was treated with 0.1 ml of PBS. After incubation for 3 days, the same flow cytometric analysis as in Example <2-1> was performed to measure the absolute number of myeloid cells of each group, and then all the obtained data was analyzed using FlowJo software (Tree Star Inc., Ashland, Oreg., USA) to determine the ratio of MDSCs to CD11b+Gr1 myeloid cells.
In general terms: A flow cytometer gives signals particle by particle.

The test system of assay [2] is Toll-like receptor 4 (TLR4). Kind of assay: Western blotting of TLR4 in heart or lung tissues. Format: in vivo, C57BL/6 mice. The protocol:
Specifically, 0.1 ml of phosphate buffered saline (PBS; Gibco, Grand Island, N.Y., USA) was injected intraperitoneally (i.p.) into mice of the control, and 12 hours after the injection, 0.1 ml of PBS was intraperitoneally injected again into each mouse. 1 μg of LPS (Escherichia coli serotype 0111:B4, Sigma-Aldrich, St. Louis, Mo., USA) dissolved in 0.1 ml of PBS was injected intraperitoneally (i.p.) into mice of the LPS group to induce sepsis, and 12 hours after sepsis induction, 0.1 ml of PBS was intraperitoneally injected into each mouse. 1 μg of LPS and 100 mg/kg of ammonium glycyrrhizinate (GR; Abcam Inc., Cambridge, UK) dissolved in 0.1 ml of PBS were injected intraperitoneally (i.p.) into mice of the LPS+GR group, and 12 hours after the injection, 100 mg/kg of ammonium glycyrrhizinate dissolved in 0.1 ml of PBS was intraperitoneally injected into each mouse.
It was determined whether TLR4 expression levels were inhibited when mice with sepsis induced by LPS were treated with glycyrrhizin. The expression level of Toll-like receptor 4 (TLR4) was confirmed using immunohistochemistry and western blot analysis.
Western blotting was performed to confirm the intensity of TLR4 staining. […] Band intensity was quantified using Luminescent Image Analyzer LAS-3000 (FUJIFILM Medical Systems, Hanover Park, Ill., USA). The density of each band was analyzed using NIH Image J software.
Background: A western blot detects proteins with antibodies after separation by electrophoresis.

[3] abbreviates: parenthesised line under cell number.

lipopolysaccharide [LPS]: in assay [1], the “CD11b + Gr1 myeloid cells (number of cells)” value is 16,500 ± 400, the “MDSCs (number of cells)” value is recorded as 5,200 ± 300, the “MDSCs/CD11b + Gr1 myeloid cells × 100 (%)” value amounted to 32.45 ± 2.69% and the Total cell count is 47,300 ± 1,200. In assay [1] (setting [3]), the “CD11b + Gr1 myeloid cells (value in parentheses)” value is given as “(34.61 ± 4.51)” and the “MDSCs (value in parentheses)” value is “(11.23 ± 1.25)”. Also, in assay [2] (heart), the “TLR4 intensity by western blotting” value was found to be 403.9±29.3. Besides, in assay [2] (lungs), the “TLR4 intensity by western blotting” value came out at 350.7±21.3.

The values are drawn from patent publication US20200071667A1, “COMPOSITION COMPRISING GLYCYRRHIZIN FOR INDUCING DIFFERENTIATION INTO MYELOID-DERIVED SUPPRESSOR CELL FROM MYELOID CELL” (Konkuk University Glocal Industry-Academic Collabo, priority 2018, published 2020).
